{"source": "paper PMC10783034", "about": "“Pharmacokinetic and pharmacodynamic evaluation of the atypical tetracyclines chelocardin and amidochelocardin in murine infection models” (Microbiology Spectrum, 2023)", "key": {"[1]": {"test_system": "ESKAPE pathogens", "assay": "MIC determination against a variety of ESKAPE pathogens", "type": "cell-based", "settings": "against A. baumannii, P. aeruginosa, and E. aerogenes", "description": "(§1) The assay was conducted as described previously ([54]) with the following modifications. The MIC was tested against the K. pneumoniae strain ATCC 43816 in an MHB (not cation-adjusted) medium. CHD and CDCHD were tested in concentrations ranging from 0.078 to 10 µg/mL. Moreover, the MIC was determined for the following strains: K. pneumoniae DSM-30104, E. faecium DSM-20477, S. aureus DSM-346, P. aeruginosa DSM-11128, A. baumannii DSM-30008, E. aerogenes DSM-30053, E. coli ATCC 25922, and E. coli C175-94. All strains were grown in MHB medium, except for E. faecium, which was grown in TSB. CHD, epi-CDH, and CDCHD were tested in concentrations ranging from 0.125 to 64 µg/mL as described previously ([19])."}, "[2]": {"test_system": "K. pneumoniae ATCC 43816", "assay": "MIC determination", "type": "cell-based", "settings": "MHB (not cation-adjusted) medium", "description": "as §1"}}}
{"smiles": "CC(=O)C1=C(O)[C@H](N)[C@@H]2Cc3c(c(O)c4c(O)c(C)ccc4c3C)C(=O)[C@]2(O)C1=O", "note": "[CHD, chelocardin]", "values": [{"measurement": "activity (in words)", "setting": "[1]", "result": "inactive"}, {"measurement": "MIC", "setting": "[2]", "result": 5, "unit": "µg/mL"}]}
